# Laboratory results reported in ChEMBL document CHEMBL5226326, “Discovery of 1-Benzoyl 4-Phenoxypiperidines as Small-Molecule Inhibitors of the β-Catenin/B-Cell Lymphoma 9 Protein-Protein Interaction” (J Med Chem, 2021).
# Legend:
# [1] = target: T1, beta-catenin-B-cell lymphoma 9 protein complex (Homo sapiens, UniProt P35222); test: Inhibition of full length beta-catenin (1 to 781 residues) (unknown origin) expressed in Escherichia coli BL21 (DE3)/N-terminal biotinylated human BCL9 HD2 (350 to 375 residues) protein-protein interaction incubated for 1 hr by Alphascreen assay
# T1 sequence (P35222 whole entry): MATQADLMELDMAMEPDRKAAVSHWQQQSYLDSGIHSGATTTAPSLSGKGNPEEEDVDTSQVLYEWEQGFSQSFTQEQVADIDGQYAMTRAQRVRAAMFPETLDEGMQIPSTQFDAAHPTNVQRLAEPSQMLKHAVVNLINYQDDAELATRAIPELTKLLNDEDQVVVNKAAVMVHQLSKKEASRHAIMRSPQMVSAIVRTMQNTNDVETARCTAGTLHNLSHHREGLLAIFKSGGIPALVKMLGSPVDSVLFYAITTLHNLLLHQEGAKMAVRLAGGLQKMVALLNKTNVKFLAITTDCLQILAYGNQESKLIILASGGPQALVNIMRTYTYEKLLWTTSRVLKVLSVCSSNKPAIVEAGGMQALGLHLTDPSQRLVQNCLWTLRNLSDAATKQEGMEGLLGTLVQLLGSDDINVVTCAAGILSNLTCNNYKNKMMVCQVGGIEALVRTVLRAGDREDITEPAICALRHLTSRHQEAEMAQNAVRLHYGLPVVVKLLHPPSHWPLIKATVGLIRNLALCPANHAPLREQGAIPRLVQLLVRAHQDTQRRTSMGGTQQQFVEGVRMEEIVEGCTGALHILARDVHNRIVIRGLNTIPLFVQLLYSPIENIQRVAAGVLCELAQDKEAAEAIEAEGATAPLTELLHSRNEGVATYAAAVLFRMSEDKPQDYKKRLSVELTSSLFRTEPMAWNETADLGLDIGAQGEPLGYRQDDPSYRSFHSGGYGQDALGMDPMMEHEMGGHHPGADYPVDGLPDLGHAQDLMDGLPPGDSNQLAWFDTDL
# T1 sequence (O00512 whole entry): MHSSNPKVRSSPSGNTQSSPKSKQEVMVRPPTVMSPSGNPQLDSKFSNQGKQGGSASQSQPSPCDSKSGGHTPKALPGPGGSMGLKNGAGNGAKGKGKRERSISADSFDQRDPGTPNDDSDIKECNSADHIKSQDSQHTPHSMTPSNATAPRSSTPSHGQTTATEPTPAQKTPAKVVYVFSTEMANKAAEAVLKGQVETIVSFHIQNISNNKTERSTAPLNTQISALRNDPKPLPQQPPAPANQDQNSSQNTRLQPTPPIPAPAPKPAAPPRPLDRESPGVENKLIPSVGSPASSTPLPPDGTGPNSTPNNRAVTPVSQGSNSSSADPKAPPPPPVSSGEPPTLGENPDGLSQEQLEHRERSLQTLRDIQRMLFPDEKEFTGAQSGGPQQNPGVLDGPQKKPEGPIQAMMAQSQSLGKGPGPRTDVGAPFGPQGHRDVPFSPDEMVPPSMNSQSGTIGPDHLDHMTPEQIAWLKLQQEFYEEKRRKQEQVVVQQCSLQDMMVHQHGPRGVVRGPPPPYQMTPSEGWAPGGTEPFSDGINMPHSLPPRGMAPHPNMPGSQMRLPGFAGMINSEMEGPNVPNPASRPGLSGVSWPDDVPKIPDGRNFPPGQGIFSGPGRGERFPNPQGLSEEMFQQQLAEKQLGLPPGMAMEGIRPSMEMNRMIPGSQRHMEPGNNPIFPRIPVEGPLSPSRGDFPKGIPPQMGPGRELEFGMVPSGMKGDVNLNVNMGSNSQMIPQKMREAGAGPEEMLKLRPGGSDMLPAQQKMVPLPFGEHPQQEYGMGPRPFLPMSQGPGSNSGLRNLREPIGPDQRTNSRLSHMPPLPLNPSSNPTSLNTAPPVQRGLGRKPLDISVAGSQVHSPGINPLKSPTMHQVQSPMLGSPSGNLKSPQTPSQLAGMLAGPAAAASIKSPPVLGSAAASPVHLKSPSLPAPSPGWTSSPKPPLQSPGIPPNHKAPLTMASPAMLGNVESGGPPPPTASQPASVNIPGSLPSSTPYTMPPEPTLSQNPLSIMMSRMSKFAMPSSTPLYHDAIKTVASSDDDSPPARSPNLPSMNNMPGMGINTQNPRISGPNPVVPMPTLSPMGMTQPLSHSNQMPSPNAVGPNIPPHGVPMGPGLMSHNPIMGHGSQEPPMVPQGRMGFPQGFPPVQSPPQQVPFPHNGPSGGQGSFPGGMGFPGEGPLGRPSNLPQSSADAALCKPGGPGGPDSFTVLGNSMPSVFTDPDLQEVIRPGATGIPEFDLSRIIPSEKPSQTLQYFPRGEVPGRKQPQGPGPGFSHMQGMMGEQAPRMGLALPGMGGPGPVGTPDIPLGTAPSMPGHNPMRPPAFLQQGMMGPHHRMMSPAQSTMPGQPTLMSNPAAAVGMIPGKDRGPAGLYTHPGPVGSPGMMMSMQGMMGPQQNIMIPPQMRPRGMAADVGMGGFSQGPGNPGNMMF
# [2] = Inhibition of Wnt/beta-catenin transactivation signalling in human SW480 cells transfected with renilla luciferase and TOPFlash reporter gene incubated for 24 hrs by dual-luciferase assay; format: cell-based; conditions: SW480, 24 h
structure (smiles),measurement,setting,value
CC(C)(C)C1CCC(c2cc(C(=O)N3CCC(Oc4cc(N5CCNCC5)ccc4C#N)CC3)ccc2O[C@H]2CCNC2)CC1.Cl.Cl (mixture of isomers; cis),IC50,[1],1200 nM
same,IC50,[2],2600 nM
